Data on two molecules can be found in patent US20150174209A1, “INSULIN-PRAMLINTIDE COMPOSITIONS AND METHODS FOR MAKING AND USING THEM” (AMYLIN PHARMACEUTICALS. LLC, priority 2012, published 2015).

In data set [1] the test system is healthy subjects. Nature of the data set: Glucose and C-peptide minimal models and minimal model of gastrointestinal absorption on aggregated Woerle data. Also on record: species or system human. An excerpt:
The data published in Woerle et al. (December, 2008) Diabetes Care 31(12): 2325-2331, where a dual tracer approach was used in healthy subjects to estimate the rate of appearance of glucose during the meal and hepatic glucose production during placebo/pramlintide were used in an aggregated fashion (individual data not available, FIG. 13A). […] Subsequently, the minimal model of gastrointestinal absorption (FIG. 37) was used to quantify the changes of the rate of appearance of ingested glucose due to pramlintide. […] This finding was incorporated into the Healthy State Simulator and predictions were successfully tested against Woerle et al data FIG. 38. We also successfully tested the prediction of 2 h postprandial glucose of the Type 1 Diabetes Simulator (illustrated in FIG. 18) (incorporating the new kmax) against the data by Kovatchev B P, et al., Pramlintide reduces the risks associated with glucose variability in type 1 diabetes. Diabetes Technol Ther. 2008 October; 10(5):391-6. The new model was finally incorporated into our model predictive control algorithm and in silico experiment on the Type 1 diabetes.

In data set [2] the test system is type 1 diabetic subjects. Nature of the data set: Identification of the gastro-intestinal tract (oral glucose absorption) model on Ra meal data of the Woerle T1D database. The arrangement: species or system human. The following applies: 30 μg pramlintide s.c. with meal containing 50 g glucose, 15 type 1 diabetic subjects. As to the method:
The database was made up of 15 type 1 diabetic subjects (8 men and 7 women, 37±2 years of age, body weight 76±3 kg) (this is a database for each individual patient participating in the study published in Woerle et al. (December, 2008) Diabetes Care 31(12): 2325-2331, in which pramlintide was given to TI patients and labeled glucose appearance from meal to blood was measured; Woerle reported the effect of pramlintide on gastric emptying and thus glucose appearance in the blood after a meal in patients with type 1 diabetes). “Ra meal data” means the “glucose rate of appearance (Ra) of ingested glucose”; “Ra meal” refers to measurement in response to a meal (ingested), versus after say an intraduodenal injection of glucose.
Subjects were studied on 2 occasions: hyperglycemia with (PRAM) and without (PBO) 30 μg of pramlintide (Amylin Pharmaceuticals, San Diego, Calif.), injected subcutaneously in the lower abdominal wall with the standardized meal containing 50 g of glucose. Over the initial 90 min of the postprandial period, blood samples were taken at 15 min intervals and thereafter at 30-min intervals until completion of the experiment at 330 min.
The model has been numerically identified on placebo Ra meal data using nonlinear weighted least-squares estimator. Identification on pramlintide Ra meal data have required the use of Bayesian estimator in order to achieve a precise estimates of model parameters.
Identification of the gastro-intestinal tract model on Woerle Ra meal data has provided individual parameters estimates for the 15 T1D subjects in presence or absence of pramlintide. Then individual variation for each parameter has been calculated as: […]
We reduced the standard deviations of the variation of the parameters to the 30% of their values due to the small number of subjects available:
Then 100 virtual parameters variations were generated from the distribution: […]

Data set [3] concerns patients with type 1 diabetes mellitus. The following applies: in vivo, sc; cited from earlier work.
The conditions of data set [4]: cited from earlier work.
Data set [5] in a line: Chemical stability of pramlintide and human insulin co-formulated in SYMLIN placebo buffer pH 4.0 (RP-HPLC purity; FIGS. 35, 36). The following applies: for stability in co-formulation: 25 degrees Centigrade, SYMLIN placebo buffer pH 4.0, 13 week study. The protocol:
Purity was determined via RP-HPLC and is normalized to time=0 purity.

For data set [6] the following is noted: pH 2-3; 4C; cited from earlier work.

On to `CC[C@H](C)[C@H](NC(=O)[C@@H]1CCCN1C(=O)CNC(=O)[C@H](Cc1ccccc1)NC(=O)[C@H](CC(N)=O)NC(=O)[C@H](CC(N)=O)NC(=O)[C@H](CO)NC(=O)[C@H](CO)NC(=O)[C@H](Cc1c[nH]cn1)NC(=O)[C@@H](NC(=O)[C@H](CC(C)C)NC(=O)[C@H](Cc1ccccc1)NC(=O)[C@H](CC(N)=O)NC(=O)[C@H](C)NC(=O)[C@H](CC(C)C)NC(=O)[C@H](CCCNC(=N)N)NC(=O)[C@H](CCC(N)=O)NC(=O)[C@@H](NC(=O)[C@H](C)NC(=O)[C@@H]1CSSC[C@H](NC(=O)[C@@H](N)CCCCN)C(=O)N[C@@H](CC(N)=O)C(=O)N[C@@H]([C@@H](C)O)C(=O)N[C@@H](C)C(=O)N[C@@H]([C@@H](C)O)C(=O)N1)[C@@H](C)O)C(C)C)C(=O)N[C@@H](CC(C)C)C(=O)N1CCC[C@H]1C(=O)N1CCC[C@H]1C(=O)N[C@H](C(=O)N[C@@H](CC(N)=O)C(=O)N[C@H](C(=O)NCC(=O)N[C@@H](CO)C(=O)N[C@@H](CC(N)=O)C(=O)N[C@H](C(=O)N[C@@H](Cc1ccc(O)cc1)C(N)=O)[C@@H](C)O)C(C)C)[C@@H](C)O` [pramlintide], for which, in data set [1] (glucose and C-peptide minimal models), the “effect on insulin sensitivity and beta-cell function” value was “no effect”. In addition, the “decrease of parameter kmax (maximum gastric emptying)” value in data set [1] (minimal model of gastrointestinal absorption) is “⅔”. In addition, in data set [2], the “b (model parameter estimate, mean)” value was 0.985; the “c (model parameter estimate, mean)” value is reported as 0.537; the “kabs (model parameter estimate, mean)” value is reported as 0.020; the “kmin (model parameter estimate, mean)” value is on record as 0.005. The “kmax (model parameter estimate, mean)” value in data set [2] (Bayesian estimator) was 0.041. Also, the “effect of mixing with short- or long-acting insulin in the same syringe on pharmacodynamics of glucose and pharmacokinetics of insulin or pramlintide” value in data set [3] is recorded as “did not affect”.

Turning to “human insulin: regular human hormone with 21 amino acid A chain (SEQ ID NO:2) and 30 amino acid B chain (SEQ ID NO:3)”, the “absorption after subcutaneous injection” value in data set [4] is 15 to 60 min. Besides, the duration of action in data set [4] (subcutaneous injection) is 5 to 9 h. The “purity loss during storage” value in data set [5] (25 degrees C, insulin in co-formulations) is on record as 40%. Also, the stability in co-formulation entry was “rapidly degrades” in data set [5] and “unacceptable degradation” in data set [5] (listed as insulin). Moreover, the “formation of monodesamido-(A21)-insulin” value in data set [6] is 1-2 % per month.
